Holding throughout (assay type): in vivo, mice
For one assay, the system named is U251. Briefly: s.c. xenograft model of GBM, U251, time to progression. To be noted: for time to progression of the tumours: U251G xenograft. Here is the method:
(§1) Next, adopting the procedure of Example 3, s.c. xenograft models of GBMs in mice were prepared using the GBM cell lines U251 and U87.
(§2) The U251 mice prepared as above were subjected either subjected to radiotherapy (2 Gy for 5 consecutive days), treatment with EDO-S101 (60 mg/kg intravenously at days 1, 8 and 15 of the treatment cycle) or control only. Before any irradiation mice were anesthetized with a mixture of ketamine (25 mg/ml)/xylazine (5 mg/ml). Anesthetized tumor-bearing mice received a focal irradiation at the dose of 2 Gy for 5 consecutive days. Irradiation was delivered using an X-ray linear accelerator at a dose rate of 200 cGy/min at room temperature. All mice were shielded with a specially designed lead apparatus to allow irradiation to the right hind limb. Mice were kept under these conditions until all irradiation finished.
A study was made of the progression of the GBM according to the procedure of Example 3.
In a follow up experiment, U251 mice prepared in the same manner were either subjected to the current gold standard treatment of radiotherapy and temozolomide (2 Gy for 5 consecutive days and 16 mg/kg for 5 consecutive days, po), treatment with EDO-S101 (60 mg/kg, intravenously at days 1, 8 and 15 of the treatment cycle), treatment with EDO-S101 and radiotherapy (2 Gy for 5 consecutive days and 60 mg/kg, intravenously at days 1, 8 and 15 of the treatment cycle) or control.

The subject of a further assay is U87. Briefly: s.c. xenograft model of GBM, U87, time to progression. Particulars: for time to progression of the tumours: U87G xenograft. Here is the method: as §1, §2
The same sequence of experiments was followed, but this time with the s.c. xenograft models of GBM in mice prepared using the GBM cell line U87. In a first experiment, the U87 mice prepared as above were subjected either subjected to radiotherapy (2 Gy for 5 consecutive days), treatment with EDO-S101 (60 mg/kg intravenously at days 1, 8 and 15 of the treatment cycle) or control only. A study was made of the progression of the GBM.

The subject of another assay is U251-luciferase. Briefly: Orthotopic model of U251-luciferase transfected cells. To be noted: for mice with tumours of some grade (percent): control 72.7%. Here is the method: Mice isotopically transfected with U251-luciferase in accordance with the procedure of Example 3 were treated with radiotherapy (2 Gy for 5 consecutive days), temozolomide (16 mg/kg for 5 consecutive days, po), radiotherapy and temozolomide (2 Gy for 5 consecutive days and 16 mg/kg for 5 consecutive days, po), EDO-S101 (60 mg/kg, intravenously at days 1, 8 and 15 of the treatment cycle) or control vehicle.
Intracranial tumour growth was monitored with the […] imaging system (Caliper Life Sciences, Hopkinton, MA, USA). Mice were anesthetized with 2% to 4% isofluorane (Baxter, Deerfield, IL, USA) followed by intraperitoneal injections of 150 mg/kg d-luciferin (In Vivo Imaging Solutions). Five animals were measured at the same time and the luminescent camera was set to 1 minute exposure, medium binning, 1 f/stop, blocked excitation filter, and open emission filter. The photographic camera was set to 2 s exposure, medium binning, and 8 f/stop. The field of view was set to 22 cm to capture five mice at once. Serial images were taken on a weekly basis using identical settings. Bioluminescence intensity was quantified using the Living Image software (Caliper Life Sciences).
Before any irradiation mice were anesthetized with a mixture of ketamine (25 mg/ml)/xylazine (5 mg/ml). Anesthetized tumour-bearing mice received a focal irradiation at the dose of 2 Gy for 5 consecutive days. Irradiation was delivered using an X-ray linear accelerator at a dose rate of 200 cGy/min at room temperature. All mice were shielded with a specially designed lead apparatus to allow irradiation to the […]. Mice were kept under these conditions until all irradiation finished.
All images were obtained in the transverse plane using the following sequences: transverse T2-weighted turbo spin-echo (TSE) sequence (repetition time [TR] msec/echo time [TE] msec) 6766/120, number of signal acquired 4, matrix of 192 × 192) applied with a section thickness of […], an intersection gap of 0.0 mm, and a flip angle of 160 °. The field of view was 36 × 60 mm^2, which included the tumour in its entirety with a resultant voxel size of 0.3 × 0.3 × 1.0 mm^3.
Continuous variables were summarized as mean and standard deviation (SD) or as median and 95% Cl for the median. For continuous variables not normally distributed, statistical comparisons between control and treated groups were established by carrying out the Kruskal-Wallis Tests. For continuous variables normally distributed, statistical comparisons between control and treated groups were established by carrying out the ANOVA test or by Student t test for unpaired data (for two comparisons).

A further assay concerns OCI-LY10B lymphoma cells. Briefly: Murine model for primary CNS lymphoma, intracerebral OCI-LY10B. Particulars: for tumour growth: iv days +4, +11, +18; for median survival: iv days +4, +11, +18, EDO-S101 60 mg/kg, bendamustine 50 mg/kg, controls 48 days. On the procedure: The procedure of Example 3 was repeated, except the murine models were created with 1×10^5 luciferase-transfected OCI-LY10B lymphoma cells to create a model of primary CNS lymphoma. EDO-S101 (60 mg/kg body weight), bendamustine (50 mg/kg body weight) and control was administered intravenously via a tail vein to separate groups of the test mice on days +4, +11 and +18 post intracerebral implantation of the OCI-LY10B lymphoma cells. […] EDO-S101 therefore appears to be a promising treatment for primary CNS lymphoma.

Setting [1] is: drug in combination with radiotherapy 2 Gy x 5 days, EDO-S101 60 mg/kg iv days 1, 8, 15, temozolomide 16 mg/kg po x 5 days.
Where [2] appears, read: drug alone, 50 days after beginning of treatment.

Molecules are shown by their SMILES. “Also recorded” adds a separate entry of the source.

Consider `Cn1c(CCCCCCC(=O)NO)nc2cc(N(CCCl)CCCl)ccc21` [EDO-S101], for which the “time to progression of the tumours” value is on record as “over 50 days” in the assay on U251 (drug alone, 60 mg/kg iv days 1, 8, 15, control approximately 17-18 days); “over 50 days” in the assay with U251 (setting [1]); 40 days with U87 (drug alone, 60 mg/kg iv days 1, 8, 15, control approximately 15 days); “over 50 days” in the assay on U87 (setting [1]). The “time to progression versus radiotherapy-treated tumours” value with U251 (U251 s.c. xenograft, drug alone, FIG. 11) is “considerably longer”. Moreover, the “time to progression versus EDO-S101 alone and versus radiotherapy and temozolomide” value in the assay with U251 (U251 s.c. xenograft, drug plus radiotherapy, FIG. 12) was “significantly longer”; in the assay with U87 (U87 s.c. xenograft, drug plus radiotherapy, FIG. 14), “significantly longer”. For the same compound, the “time to progression versus radiotherapy, or versus radiotherapy and temozolomide” value in the assay on U87 (U87 s.c. xenograft, drug alone, FIG. 13, FIG. 14) is “considerably longer; also recorded: greater than that achieved with the combined radiotherapy and temozolomide treatment”. Moreover, the “survival probability versus radiotherapy or temozolomide” value in the assay with U251-luciferase (drug alone, 60 mg/kg iv days 1, 8, 15, FIG. 17) is listed as “significantly greater”. Also, the “mice displaying a large lesion (number)” value with U251-luciferase (setting [2]) is given as 1 of the 13. Besides, in the assay on U251-luciferase (drug alone, 50 days after beginning of treatment, control 8 out of 11), the “mice with tumours of some grade (number)” value is 5 out of 13. The “mice with tumours of some grade (percent)” value in the assay on U251-luciferase (setting [2]) came out at 38.5%. For the same compound, the tumour growth result with OCI-LY10B lymphoma cells is recorded as “significantly suppressed tumour growth”. The median survival in the assay with OCI-LY10B lymphoma cells is listed as 62 days.

In the case of `Cn1c(CCCC(=O)O)nc2cc(N(CCCl)CCCl)ccc21` [bendamustine], in the assay on OCI-LY10B lymphoma cells, the tumour growth entry was “significantly suppressed tumour growth” and the median survival is on record as 54 days.

With `Cn1nnc2c(C(N)=O)ncn2c1=O` [temozolomide], the “time to progression of the tumours” value with U251 (setting [1]) was 42 days; in the assay with U87 (setting [1]) it was 35 days. Also, the “mice with tumours of some grade (percent)” value in the assay on U251-luciferase (setting [2]) was 38.5%. The “mice displaying lesions at the end of the study (percent)” value in the assay with U251-luciferase (with radiotherapy 2 Gy x 5 days, temozolomide 16 mg/kg po x 5 days) worked out at 18.2%.

The record behind these values is patent publication US20230049350A1, “COMPOUNDS FOR TREATING BRAIN CANCER” (Purdue Pharmaceutical Products L.P., priority 2014, published 2023).
